The values below come from ChEMBL document CHEMBL3507680, “University of Dundee, Gates Library screen for HepG2 cell viability”.

Each structure is given as a SMILES string.

This data set can be described thus: Human HepG2 cell viability assay in 384 well format. The format is toxicity, cell-based. The settings on record: HepG2 cells, read-out: Inhibition. Also on record: dose 125 nL, time 70.5 hour; concentration not given beside the values.
As to `CCC1(CNC(=O)NC(c2nnc3n2CCC3)C(C)C)CCC1` (configuration not stated), the cytotoxicity at 70.5 h was 35.2%.

Turning to `CN(C)C(=O)c1cn2cc(-c3ccccc3Cl)n(CC3CC3)c(=O)c2n1`, the cytotoxicity at 70.5 h was -3.22%.

Regarding `CO[C@H]1CN(Cc2ccc(F)cc2)CC[C@@]12CCCO2`, the cytotoxicity at 70.5 h is 6.89%.

Consider `Cc1noc(C)c1-c1cncc(C2CCCN2Cc2ccncc2)n1` (configuration not stated), for which the cytotoxicity at 70.5 h was -16.4%.

As for `CCn1cnnc1C1CCN(C(=O)c2cc(C)n(CC)c2C)CC1`, the cytotoxicity at 70.5 h is -5.03%.

Regarding `CCOCC1CN(S(=O)(=O)C2CC2)Cc2cnn(C)c21` (configuration not stated), the cytotoxicity at 70.5 h amounted to 20%.

For the molecule `CN1CCCN(C(=O)c2ccnn2-c2ccc3ccccn23)CC1`, the cytotoxicity at 70.5 h worked out at 12.9%.

Take `CC(CN1CCOCC1)NC(=O)c1cccc2cn[nH]c12` (configuration not stated): the cytotoxicity at 70.5 h was -3.84%.

Consider `CCS(=O)(=O)N1CCC2(CCN(C(=O)c3cccs3)CC2)CC1`, for which the cytotoxicity at 70.5 h is -4.52%.

For `Cc1nc(CN2CCO[C@@H]3CC(COc4ccccn4)C[C@H]32)cs1` (some centres not stated), the cytotoxicity at 70.5 h was -1.88%.

For the molecule `CC(=O)Nc1ccc(-c2cn(CCn3c(C)cc(C)nc3=O)nn2)cc1`, the cytotoxicity at 70.5 h is -6.08%.

Take `COc1ccc(OC)c2c(C)cc(N(C)CCO)nc12`: the cytotoxicity at 70.5 h came to 16.9%.

As to `CC(NC(N)=O)C(=O)N(C)Cc1cccc(C(F)(F)F)c1` (configuration not stated), the cytotoxicity at 70.5 h was 10.7%.

Regarding `CC1(C)COCCN1C(=O)Cc1csc(Cc2ccccn2)n1`, the cytotoxicity at 70.5 h was -7.18%.

Take `CC(C)CN1CCC2(C=C(C(=O)NC3CC3)c3ccccc32)CC1`: the cytotoxicity at 70.5 h is -11.9%.

On to `O=S(=O)(Cc1ccccc1Cl)NCCCN1CCCC1`, for which the cytotoxicity at 70.5 h was -5.39%.

For the molecule `N#Cc1ccc(C(=O)O)nc1/C=C/c1cccc(Cl)c1`, the cytotoxicity at 70.5 h was 7.88%.

For `CCCC(=O)N(C)c1cc(C#N)c2ccccc2n1`, the cytotoxicity at 70.5 h is -2.82%.

As to `COC(C)(C)c1noc(C2(C#N)CCCCC2)n1`, the cytotoxicity at 70.5 h is -0.329%.

Take `C[C@@H](O)CNc1c(NCc2ccco2)c(=O)c1=O`: the cytotoxicity at 70.5 h is -12.9%.

As for `CC(C)C(=O)N1CCN(c2cc(N(C)C)cnn2)CC1`, the cytotoxicity at 70.5 h is -5.3%.

For `CN(C)c1nc2sc(C(=O)N3CCN(C(=O)OC(C)(C)C)CC3)cc2s1`, the cytotoxicity at 70.5 h is -8.07%.

As to `COCCn1ccnc1-c1[nH]cnc1C`, the cytotoxicity at 70.5 h was determined as 6.67%.

Take `Cc1ccc2cc(C(=O)N3CCCC3Cn3cccn3)[nH]c2c1` (configuration not stated): the cytotoxicity at 70.5 h was 24.4%.

As to `O=C(NC[C@@H]1CCCO1)c1cccnc1N1CCCC1c1ccccc1` (some centres not stated), the cytotoxicity at 70.5 h is -5.49%.

Regarding `CC(O)(CNC(=O)c1c(F)cccc1Cl)C1CC1` (configuration not stated), the cytotoxicity at 70.5 h is -14.4%.

As for `Cc1ccc(CN2Cc3nnn(C)c3C(COCC3CC3)C2)s1` (configuration not stated), the cytotoxicity at 70.5 h stood at 4.45%.

For `CC1(C)[C@H]2CC=C(CN3CCCn4nc(CCC(=O)O)cc4C3)[C@@H]1C2`, the cytotoxicity at 70.5 h was -14.3%.

For `Cc1nc(C2(O)CCCNCC2)sc1CCOc1ccccc1Cl` (configuration not stated), the cytotoxicity at 70.5 h worked out at 1.01%.

For `Cc1noc(C)c1CN1CCC2(CC1)CC(Oc1cccnc1)CO2` (configuration not stated), the cytotoxicity at 70.5 h was found to be 1.43%.

Regarding `c1cnc(NC2COC3(CCN(Cc4nccs4)CC3)C2)cn1` (configuration not stated), the cytotoxicity at 70.5 h is -8.19%.

Regarding `CCC(NC(=O)c1ccc(OC)nn1)c1nc(C(F)(F)F)cs1` (configuration not stated), the cytotoxicity at 70.5 h is -6.03%.

For `CN(Cc1csc(-c2cccs2)n1)C(=O)CCn1ccccc1=O`, the cytotoxicity at 70.5 h is -17.2%.

Take `Cc1ccc(N2CC[C@H]3C[C@H](C(=O)NCc4ccco4)O[C@H]3C2)nn1`: the cytotoxicity at 70.5 h was -11.1%.

For the molecule `CCn1ncc2c1C(COC)CN(S(=O)(=O)N(C)C)C2` (configuration not stated), the cytotoxicity at 70.5 h was -10.2%.

In the case of `Cc1cccc(N2CCN(C(=O)CCc3c(C)noc3Cl)CC2)c1`, the cytotoxicity at 70.5 h is -8.69%.

Turning to `CCN1CC(C(=O)N2CC(Oc3ccccc3Cl)C2)CCC1=O` (configuration not stated), the cytotoxicity at 70.5 h was -1.72%.

`CC(C)NC(=O)C1CN(C(=O)c2cccs2)CC12CCOCC2` (configuration not stated): the cytotoxicity at 70.5 h is -1.8%.

For the molecule `CCN(CC)CCNC(=O)CCc1c(C)nn(-c2ccccc2Cl)c1C`, the cytotoxicity at 70.5 h was 16.4%.

For the molecule `Cc1cc(C)c(CNCC(O)c2ccc(F)c(F)c2)c(C)c1` (configuration not stated), the cytotoxicity at 70.5 h is -11.4%.

In the case of `N#Cc1ccc(N2CC3(CCN(c4nccs4)C3)C2)nc1`, the cytotoxicity at 70.5 h worked out at 5.37%.

Turning to `CC1CN(C(=O)CN(Cc2ccco2)C2CC2)CCO1` (configuration not stated), the cytotoxicity at 70.5 h was -10.6%.

As to `CC(C)COCC1CN(Cc2ccoc2)Cc2ncn(C)c21` (configuration not stated), the cytotoxicity at 70.5 h was found to be 14%.

As for `O=C(c1ncoc1C1CCCO1)N1CC2(CCCC2)c2ccccc21` (configuration not stated), the cytotoxicity at 70.5 h is -6.29%.

`COc1cccc(CN2CCN(CC(C)C)C(=O)C2C)c1O` (configuration not stated): the cytotoxicity at 70.5 h is 0.611%.

As to `CCN1Cc2nc(OC)c(CNC(=O)C3CCCN(C)C3)cc2C1=O` (configuration not stated), the cytotoxicity at 70.5 h is -5.45%.

On to `Cc1cnn(CC2CN(Cc3ccc(-n4cccn4)cc3)CCO2)c1` (configuration not stated), for which the cytotoxicity at 70.5 h is -0.9%.

Turning to `CCc1cc(CN(C)C(=O)c2nnc(CN(C)C)o2)on1`, the cytotoxicity at 70.5 h is -4.97%.

On to `Cc1nc(CN2CC[C@@H]3[C@@H](CCC(=O)N3CCc3c[nH]cn3)C2)co1`, for which the cytotoxicity at 70.5 h is 13%.

For the molecule `CCCS(=O)(=O)N1CCC2(CCC(=O)N(CCc3cccnc3)C2)CC1`, the cytotoxicity at 70.5 h is -10.9%.

On to `CCN1CC2(CC1=O)CN(C(C)=O)CCN(S(=O)(=O)CC)C2` (configuration not stated), for which the cytotoxicity at 70.5 h is -2.5%.

With `CC(=O)N(Cc1ncc(C)o1)C1CCN(Cc2nccn2C)C1` (configuration not stated), the cytotoxicity at 70.5 h is 2.28%.

Consider `CC(C)c1ncc(CN2CCC(c3n[nH]cc3C(=O)N(C)C)C2)cn1` (configuration not stated), for which the cytotoxicity at 70.5 h is -2.3%.

For `O=C1O[C@@H]2CN(C3CCOCC3)C[C@@H]2N1CCc1cccc(Cl)c1`, the cytotoxicity at 70.5 h is -1.7%.

For `Cc1cccc(NC(=O)C(C)Nc2cccc(CN3CCOC3=O)c2)c1` (configuration not stated), the cytotoxicity at 70.5 h was -7.24%.

For the molecule `c1ccc(-c2nc(CN3CCn4c(nnc4C4CC4)C3)co2)cc1`, the cytotoxicity at 70.5 h was -9.3%.

For `COc1ccc(CN2CCC(c3cc(O)nc(C)n3)C2)c(OC)c1` (configuration not stated), the cytotoxicity at 70.5 h is -3.26%.

With `Cn1cc(Br)cc(NC(=O)Cc2cccs2)c1=O`, the cytotoxicity at 70.5 h was determined as 17.9%.

With `CCN1CCN(C(=O)c2cc(-c3cccs3)cs2)CC1`, the cytotoxicity at 70.5 h amounted to 15.8%.

Take `c1csc(-c2noc(CN3CCCC3Cn3cccn3)n2)c1` (configuration not stated): the cytotoxicity at 70.5 h was -2.35%.

For `O=C(C1CC1)N1CCCC(c2nc(O)cc(-c3ccncc3)n2)C1` (configuration not stated), the cytotoxicity at 70.5 h was -0.584%.

For the molecule `Cc1occc1C(=O)N1CCC2(CCCN(CC3CC3)C2=O)C1` (configuration not stated), the cytotoxicity at 70.5 h is -15%.

Turning to `Cc1ccc(CN(C)C(C(=O)O)c2ccc3c(c2)OCO3)o1` (configuration not stated), the cytotoxicity at 70.5 h is -7.76%.

In the case of `CC(=O)N[C@@H]1Cc2ccccc2[C@H]1Nc1cc(C2CC2)ncn1`, the cytotoxicity at 70.5 h amounted to 7.02%.

`Cc1cc(C(=O)NCC(Cc2cccc(F)c2)N2CCCCC2=O)no1` (configuration not stated): the cytotoxicity at 70.5 h was -2.65%.

For the molecule `Cc1cc(CN2CCN(c3nn4cc(C)nc4s3)CC2)on1`, the cytotoxicity at 70.5 h is -7.1%.

As to `CCS(=O)(=O)Cc1nc(-c2cnn3c(C)cc(C)nc23)no1`, the cytotoxicity at 70.5 h is -116%.

`CN(Cc1ccsc1)C(=O)c1cccc(S(=O)(=O)NC(C)(C)C)c1`: the cytotoxicity at 70.5 h was -2.95%.

As for `CN1CC2(CCN(Cc3ccoc3)CC2)COc2ccccc2S1(=O)=O`, the cytotoxicity at 70.5 h was -12.1%.

In the case of `Cc1ccc(C(=O)NCC2Cc3ccccc3O2)cc1S(C)(=O)=O` (configuration not stated), the cytotoxicity at 70.5 h was -1.47%.

On to `COC(=O)[C@@H]1C[C@H](NC(=O)c2cc(=O)[nH]c3ccc(C)cc23)CN1C`, for which the cytotoxicity at 70.5 h is -13%.

In the case of `Fc1cnc(N2CC[C@@H]3CN(Cc4ccncc4)CCO[C@@H]3C2)nc1`, the cytotoxicity at 70.5 h turned out to be 7.83%.

Take `O=C(NC1CCCN(CCCc2ccccc2)C1)c1ccc(Cl)s1` (configuration not stated): the cytotoxicity at 70.5 h was -4.66%.

With `CCOc1ncccc1NC(=O)N1CCc2ccccc2C1`, the cytotoxicity at 70.5 h was -12%.

For the molecule `CCN(c1cccc(F)c1)S(=O)(=O)c1cc(C(=O)O)cc2c1CCC2`, the cytotoxicity at 70.5 h is -9.22%.

Consider `CCC1CN(C(=O)c2[nH]nc(C)c2Br)CCO1` (configuration not stated), for which the cytotoxicity at 70.5 h was -6.3%.

Take `Oc1ccc(N2CCN(Cc3cc4c(cc3Br)OCCO4)CC2)cc1`: the cytotoxicity at 70.5 h came out at 5.3%.

Consider `Cc1cc(CN(C)C2CCCN(c3cccnn3)C2)on1` (configuration not stated), for which the cytotoxicity at 70.5 h was 28.9%.

For the molecule `N#CC1(NC(=O)c2ccn(-c3ccccc3Cl)n2)CCSC1` (configuration not stated), the cytotoxicity at 70.5 h is -10.3%.

For the molecule `O=C(O)c1cc(-c2ccc3c(c2)OCO3)cc(S(=O)(=O)NC2CC2)c1`, the cytotoxicity at 70.5 h was -11.6%.

As to `CN1CC[C@]2(CN(Cc3cccs3)C[C@H]2c2ccccc2)C1=O`, the cytotoxicity at 70.5 h is -4.05%.

As to `O=C(NC[C@H]1C[C@@H]2CCN1C[C@@H]2CN1CCCCC1)c1ccco1`, the cytotoxicity at 70.5 h came out at 0.157%.

With `CCN1N=C(C(=O)N2CCCC(c3noc(C)n3)C2)CCC1=O` (configuration not stated), the cytotoxicity at 70.5 h worked out at 22.2%.

Regarding `c1ccc(COC2CCN(Cc3cc4n(n3)CCCNC4)CC2)nc1`, the cytotoxicity at 70.5 h was -18%.

Take `CCc1nc(C(=O)N2CCN(CCc3ccc(OC)cc3)CC2)c[nH]1`: the cytotoxicity at 70.5 h is -12.3%.

Take `CCS(=O)(=O)c1ccc2c(c1)OCCCO2`: the cytotoxicity at 70.5 h stood at 0.078%.

For the molecule `Cc1cc(C2CCCN2CCCc2nc3ccccc3o2)on1` (configuration not stated), the cytotoxicity at 70.5 h is -16.1%.

Consider `CC(C)c1nc(CNc2ccc(N3CCC(CO)CC3)cn2)cs1`, for which the cytotoxicity at 70.5 h is 1.5%.

As to `O=C(C1CC1)N1C[C@H]2CCCN(S(=O)(=O)c3cccc(F)c3)[C@H]2C1`, the cytotoxicity at 70.5 h amounted to 3.8%.

As for `Cc1cc(C)n(CC(=O)N2CCCC(c3cc4cccnc4[nH]3)C2)n1` (configuration not stated), the cytotoxicity at 70.5 h is -3.24%.

As for `Cc1nc2c(c(NCc3nc4ccccc4s3)n1)CCNCC2`, the cytotoxicity at 70.5 h was -4.98%.

In the case of `CCc1nc(CN(C(C)=O)C2CCN(CCc3ccccc3)C2)no1` (configuration not stated), the cytotoxicity at 70.5 h is -5%.

Consider `O=C(O)[C@]12CCCN(Cc3ccccc3)C[C@H]1CN(c1ncccn1)C2`, for which the cytotoxicity at 70.5 h is -5.39%.

As to `Cc1ncc2c(n1)CN(CC(=O)Nc1nccs1)CC2`, the cytotoxicity at 70.5 h was -10.4%.

For the molecule `Cc1ccn(CCNc2ncnc3c2CCN(S(C)(=O)=O)CC3)n1`, the cytotoxicity at 70.5 h was 1.8%.

For the molecule `Cc1cccc(N2CCN(C(=O)CCc3ccsc3)C(C)C2)n1` (configuration not stated), the cytotoxicity at 70.5 h is -23.2%.

As to `COCCCN1C(=O)CC[C@H]2CN(c3nc4ccccc4s3)CC[C@H]21`, the cytotoxicity at 70.5 h is -3.23%.
